In patent US20080063628A1, “METHODS TO PROMOTE CELL DIFFERENTIATION” (priority 2006, published 2008):

Test system: PHA treated PBMCs containing activated T-lymphocytes
Experiment: Trichostatin A treatment of PBMCs, gene expression by RT-PCR (Example 20)
Assay type: cell-based, human
Settings: 5 μM
Excerpt: Human peripheral blood mononuclear cells (PBMCs) were isolated from whole blood using Histopaque (Sigma) gradients and standard density centrifugation. PBMCs are a heterogeneous mixture of lymphoid cells including quiescent T-lymphocytes. Cells were washed thoroughly, counted, and resuspended at 1-2×10^6 cells per ml in culture medium containing RPMI-1640 and 10% FCS. Phytohemagglutinin (PHA; Sigma) is a mitogenic lectin that specifically induces T-lymphocyte activation and proliferation. PHA was added to the cell suspension at a final concentration of 10 μg/ml, and PBMCs were cultured for 3 days at 37° C. with 5% CO2. […] At the end of culture, PBMCs were pooled to harvest, washed thoroughly, and resuspended in fresh culture medium with 5 μM trichostatin A diluted in DMSO. A control culture of PHA-treated PBMCs received an equivalent dilution of DMSO alone. Cells were returned to culture for an additional 24 or 48 hours. Alternatively, resting PBMCs were isolated in a similar manner and cultured for 24 or 48 hours total incubation time with either 5 μM trichostatin A or DMSO alone. At the conclusion of culture, cells were harvested and washed with PBS prior to preparation of RNA in RLT lysis buffer with β-mercaptoethanol (Qiagen). RNA was purified using the RNeasy Mini Kit (Qiagen); RNA quantity and quality were determined using a spectrophotometer. CDNA was made using the iScript CDNA synthesis kit (BioRad). Samples of 20 ng CDNA were used in each RT-PCR reaction, performed on the Applied Biosystems 7500. Results were normalized against GAPDH expression levels with data analysis performed using the accompanying software.

[1] = 24 hrs, after 3 days PHA 10 μg/ml
[2] = 48 hours, after 3 days PHA 10 μg/ml

CC(/C=C/C(=O)NO)=C\[C@@H](C)C(=O)c1ccc(N(C)C)cc1 [trichostatin A]
HNF-3 beta expression (24 or 48 hours): negative
Sox17 expression (24 or 48 hours): negative
glucagon expression (24 or 48 hours): negative
insulin expression (24 or 48 hours): negative
somatostatin expression (24 or 48 hours): negative
GAPDH gene expression [1]: +++ (detectable at less than 35 cycles by RT-PCR with SE less than 0.9)
GATA4 gene expression [1]: +++ (detectable at less than 35 cycles by RT-PCR with SE less than 0.9)
Gata1 gene expression [1]: nd (not detectable at >40 cycles by RT-PCR)
Pdx-1 gene expression [1]: + (detectable at greater than 35–40 cycles by RT-PCR)
GATA4 gene expression [2]: +++ (detectable at less than 35 cycles by RT-PCR with SE less than 0.9)
Gata1 gene expression [2]: nd (not detectable at >40 cycles by RT-PCR)
Pdx-1 gene expression [2]: + (detectable at greater than 35–40 cycles by RT-PCR)
